# Assay results as given in ChEMBL document CHEMBL5291721, “A preclinical secondary pharmacology resource illuminates target-adverse drug reaction associations of marketed drugs” (Nat Commun, 2023).
# Tests used:
# [1] = molecular target: Acetylcholinesterase (Homo sapiens, UniProt P22303); format: functional
# [2] = molecular target: T1, Alpha-2A adrenergic receptor (Homo sapiens, UniProt P08913)
# T1 sequence (P08913 whole entry): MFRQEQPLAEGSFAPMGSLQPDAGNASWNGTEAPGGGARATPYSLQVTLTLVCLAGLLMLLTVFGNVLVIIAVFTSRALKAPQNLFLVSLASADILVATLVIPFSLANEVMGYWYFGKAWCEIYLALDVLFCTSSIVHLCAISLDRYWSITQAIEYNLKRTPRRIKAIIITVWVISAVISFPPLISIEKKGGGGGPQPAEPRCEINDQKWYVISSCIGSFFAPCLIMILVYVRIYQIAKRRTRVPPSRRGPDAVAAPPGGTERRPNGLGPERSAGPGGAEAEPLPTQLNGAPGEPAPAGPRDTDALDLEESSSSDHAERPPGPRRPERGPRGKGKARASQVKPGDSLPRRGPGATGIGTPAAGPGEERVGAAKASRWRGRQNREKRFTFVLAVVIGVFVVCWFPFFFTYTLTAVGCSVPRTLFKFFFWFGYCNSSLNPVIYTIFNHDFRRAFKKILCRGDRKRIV
# [3] = molecular target: T2, D(3) dopamine receptor (Homo sapiens, UniProt P35462)
# T2 sequence (P35462 whole entry): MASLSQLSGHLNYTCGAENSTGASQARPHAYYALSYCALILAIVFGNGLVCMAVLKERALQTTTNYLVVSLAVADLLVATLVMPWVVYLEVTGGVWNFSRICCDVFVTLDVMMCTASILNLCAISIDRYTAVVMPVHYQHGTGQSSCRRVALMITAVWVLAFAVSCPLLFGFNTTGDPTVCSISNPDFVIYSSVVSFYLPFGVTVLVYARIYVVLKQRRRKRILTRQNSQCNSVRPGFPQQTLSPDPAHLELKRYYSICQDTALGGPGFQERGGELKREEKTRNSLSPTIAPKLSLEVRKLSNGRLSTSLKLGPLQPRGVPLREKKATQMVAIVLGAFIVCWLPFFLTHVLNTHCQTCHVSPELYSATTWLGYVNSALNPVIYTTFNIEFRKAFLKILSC
# [4] = molecular target: Histamine H3 receptor (Homo sapiens, UniProt Q9Y5N1)
# Chain of Histamine H3 receptor (Q9Y5N1 whole entry): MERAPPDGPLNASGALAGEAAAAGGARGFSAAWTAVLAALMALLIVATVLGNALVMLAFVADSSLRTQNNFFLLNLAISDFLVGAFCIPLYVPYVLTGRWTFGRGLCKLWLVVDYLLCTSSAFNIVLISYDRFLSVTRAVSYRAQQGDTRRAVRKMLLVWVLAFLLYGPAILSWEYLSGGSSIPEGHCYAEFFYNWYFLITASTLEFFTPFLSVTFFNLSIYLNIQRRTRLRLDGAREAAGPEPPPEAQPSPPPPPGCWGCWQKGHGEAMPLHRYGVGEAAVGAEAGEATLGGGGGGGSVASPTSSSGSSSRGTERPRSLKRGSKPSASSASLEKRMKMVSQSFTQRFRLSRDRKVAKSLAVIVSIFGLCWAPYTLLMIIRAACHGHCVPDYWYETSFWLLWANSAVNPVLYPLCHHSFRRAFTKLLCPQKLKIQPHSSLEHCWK
# [5] = molecular target: Mu-type opioid receptor (Homo sapiens, UniProt P35372)
# Chain of Mu-type opioid receptor (P35372 whole entry): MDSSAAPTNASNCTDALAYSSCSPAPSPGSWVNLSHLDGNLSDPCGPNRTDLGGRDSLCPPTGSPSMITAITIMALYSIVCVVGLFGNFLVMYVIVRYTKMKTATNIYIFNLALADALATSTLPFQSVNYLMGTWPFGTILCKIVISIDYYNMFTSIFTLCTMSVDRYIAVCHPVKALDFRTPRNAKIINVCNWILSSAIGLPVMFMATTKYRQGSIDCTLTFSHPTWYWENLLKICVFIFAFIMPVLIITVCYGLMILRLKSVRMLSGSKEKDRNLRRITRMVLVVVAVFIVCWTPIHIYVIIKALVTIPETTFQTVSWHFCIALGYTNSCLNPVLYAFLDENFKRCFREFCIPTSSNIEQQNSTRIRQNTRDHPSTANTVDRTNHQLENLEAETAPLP
# [6] = molecular target: 3',5'-cyclic-AMP phosphodiesterase 4A (Homo sapiens, UniProt P27815); format: functional
# Chain of 3',5'-cyclic-AMP phosphodiesterase 4A (P27815 whole entry): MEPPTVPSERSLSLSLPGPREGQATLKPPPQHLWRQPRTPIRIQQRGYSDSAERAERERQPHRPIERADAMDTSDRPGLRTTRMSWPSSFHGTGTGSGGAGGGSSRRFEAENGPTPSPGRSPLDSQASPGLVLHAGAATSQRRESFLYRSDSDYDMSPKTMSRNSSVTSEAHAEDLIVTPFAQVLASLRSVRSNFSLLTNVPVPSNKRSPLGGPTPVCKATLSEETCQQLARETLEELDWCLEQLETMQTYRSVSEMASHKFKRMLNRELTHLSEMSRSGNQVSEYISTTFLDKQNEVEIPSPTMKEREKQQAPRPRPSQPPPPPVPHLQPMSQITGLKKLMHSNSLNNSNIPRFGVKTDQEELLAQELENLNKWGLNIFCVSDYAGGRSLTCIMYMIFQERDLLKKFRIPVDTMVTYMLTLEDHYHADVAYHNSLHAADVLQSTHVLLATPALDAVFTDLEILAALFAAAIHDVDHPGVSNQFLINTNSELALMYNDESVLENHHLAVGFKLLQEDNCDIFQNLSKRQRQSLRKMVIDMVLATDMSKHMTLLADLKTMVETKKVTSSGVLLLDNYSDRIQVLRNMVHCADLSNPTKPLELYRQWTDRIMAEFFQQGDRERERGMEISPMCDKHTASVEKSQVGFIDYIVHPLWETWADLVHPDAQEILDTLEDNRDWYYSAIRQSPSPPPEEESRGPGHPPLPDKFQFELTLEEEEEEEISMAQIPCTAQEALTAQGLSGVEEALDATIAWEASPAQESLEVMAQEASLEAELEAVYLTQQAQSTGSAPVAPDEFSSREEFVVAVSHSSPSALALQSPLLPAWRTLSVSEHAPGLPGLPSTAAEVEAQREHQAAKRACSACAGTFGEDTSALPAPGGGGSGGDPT
# [7] = molecular target: D(1A) dopamine receptor (Homo sapiens, UniProt P21728)
# Chain of D(1A) dopamine receptor (P21728 whole entry): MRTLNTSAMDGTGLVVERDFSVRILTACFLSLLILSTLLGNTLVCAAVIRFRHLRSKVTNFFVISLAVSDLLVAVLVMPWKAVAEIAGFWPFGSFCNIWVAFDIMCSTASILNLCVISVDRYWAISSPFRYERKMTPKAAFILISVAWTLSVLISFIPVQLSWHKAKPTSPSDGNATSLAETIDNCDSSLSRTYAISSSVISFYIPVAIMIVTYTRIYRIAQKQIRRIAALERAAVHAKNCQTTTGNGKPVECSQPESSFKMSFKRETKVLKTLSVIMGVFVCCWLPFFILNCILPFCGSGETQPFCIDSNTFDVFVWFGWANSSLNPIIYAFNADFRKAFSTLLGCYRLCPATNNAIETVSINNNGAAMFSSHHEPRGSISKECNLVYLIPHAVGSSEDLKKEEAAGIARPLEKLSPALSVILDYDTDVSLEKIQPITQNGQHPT
# [8] = molecular target: T1, Alpha-2A adrenergic receptor; format: functional, cell-based
# [9] = molecular target: 5-hydroxytryptamine receptor 2B (Homo sapiens, UniProt P41595); format: functional, cell-based
# Chain of 5-hydroxytryptamine receptor 2B (P41595 whole entry): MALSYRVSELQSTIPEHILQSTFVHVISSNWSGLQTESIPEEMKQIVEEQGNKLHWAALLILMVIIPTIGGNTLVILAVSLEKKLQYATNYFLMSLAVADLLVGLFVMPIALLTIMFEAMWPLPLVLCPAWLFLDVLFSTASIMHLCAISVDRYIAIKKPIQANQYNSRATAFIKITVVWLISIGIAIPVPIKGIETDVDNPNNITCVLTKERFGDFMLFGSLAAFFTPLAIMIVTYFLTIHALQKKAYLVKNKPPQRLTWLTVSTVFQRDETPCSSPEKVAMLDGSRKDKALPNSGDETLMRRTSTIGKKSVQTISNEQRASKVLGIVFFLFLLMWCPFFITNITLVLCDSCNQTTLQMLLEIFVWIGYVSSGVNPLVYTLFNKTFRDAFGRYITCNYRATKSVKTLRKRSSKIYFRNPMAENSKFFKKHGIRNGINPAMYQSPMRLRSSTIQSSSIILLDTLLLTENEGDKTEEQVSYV
# [10] = molecular target: Melanocortin receptor 3 (Homo sapiens, UniProt P41968)
# Chain of Melanocortin receptor 3 (P41968 whole entry): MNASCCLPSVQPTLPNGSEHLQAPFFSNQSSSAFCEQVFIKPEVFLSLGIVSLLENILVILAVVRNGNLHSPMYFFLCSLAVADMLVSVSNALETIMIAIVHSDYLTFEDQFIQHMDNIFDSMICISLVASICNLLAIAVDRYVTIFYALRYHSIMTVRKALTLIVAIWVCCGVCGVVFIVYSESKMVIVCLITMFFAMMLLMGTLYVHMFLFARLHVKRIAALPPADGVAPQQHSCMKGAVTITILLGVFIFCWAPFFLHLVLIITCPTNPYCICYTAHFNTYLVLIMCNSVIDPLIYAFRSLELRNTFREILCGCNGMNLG
# [11] = molecular target: T3, Prostaglandin G/H synthase 1 (Rattus norvegicus, UniProt Q63921); format: functional
# T3 sequence (Q63921 whole entry): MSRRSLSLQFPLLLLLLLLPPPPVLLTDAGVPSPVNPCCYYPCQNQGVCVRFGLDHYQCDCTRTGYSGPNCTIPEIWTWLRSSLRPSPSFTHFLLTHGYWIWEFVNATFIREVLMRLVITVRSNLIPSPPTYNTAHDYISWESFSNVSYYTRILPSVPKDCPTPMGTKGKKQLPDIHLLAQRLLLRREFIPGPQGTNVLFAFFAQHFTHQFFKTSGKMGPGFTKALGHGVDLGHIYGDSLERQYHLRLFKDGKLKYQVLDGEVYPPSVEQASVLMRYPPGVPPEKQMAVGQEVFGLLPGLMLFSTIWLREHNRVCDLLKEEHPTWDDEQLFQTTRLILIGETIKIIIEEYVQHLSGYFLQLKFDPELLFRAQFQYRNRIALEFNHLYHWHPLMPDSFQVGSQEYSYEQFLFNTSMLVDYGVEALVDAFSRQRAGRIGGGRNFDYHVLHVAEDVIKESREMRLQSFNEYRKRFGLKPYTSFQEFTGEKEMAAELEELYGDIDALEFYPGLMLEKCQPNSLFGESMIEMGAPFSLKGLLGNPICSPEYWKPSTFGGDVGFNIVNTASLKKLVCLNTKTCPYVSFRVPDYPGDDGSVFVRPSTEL
# [12] = molecular target: T4, Amine oxidase [flavin-containing] A (Homo sapiens, UniProt P21397); format: functional
# T4 sequence (P21397 whole entry): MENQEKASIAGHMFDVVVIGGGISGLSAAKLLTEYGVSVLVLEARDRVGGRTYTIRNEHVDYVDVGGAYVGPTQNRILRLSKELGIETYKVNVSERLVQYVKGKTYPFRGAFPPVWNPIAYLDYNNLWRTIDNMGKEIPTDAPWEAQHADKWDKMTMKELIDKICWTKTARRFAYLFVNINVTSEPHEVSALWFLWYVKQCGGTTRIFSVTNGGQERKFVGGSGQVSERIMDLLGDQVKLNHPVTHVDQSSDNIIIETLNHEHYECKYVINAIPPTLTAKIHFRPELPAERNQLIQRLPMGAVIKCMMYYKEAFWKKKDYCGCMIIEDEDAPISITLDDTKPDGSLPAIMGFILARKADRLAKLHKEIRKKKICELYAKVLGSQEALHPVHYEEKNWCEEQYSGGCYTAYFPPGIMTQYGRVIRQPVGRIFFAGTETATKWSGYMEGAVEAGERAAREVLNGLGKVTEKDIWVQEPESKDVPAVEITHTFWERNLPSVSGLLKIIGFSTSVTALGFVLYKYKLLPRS
# [13] = molecular target: T2, D(3) dopamine receptor; remark: listed apart in the source
# [14] = molecular target: T5, Alpha-1A adrenergic receptor (Homo sapiens, UniProt P35348); format: functional, cell-based
# T5 sequence (P35348 whole entry): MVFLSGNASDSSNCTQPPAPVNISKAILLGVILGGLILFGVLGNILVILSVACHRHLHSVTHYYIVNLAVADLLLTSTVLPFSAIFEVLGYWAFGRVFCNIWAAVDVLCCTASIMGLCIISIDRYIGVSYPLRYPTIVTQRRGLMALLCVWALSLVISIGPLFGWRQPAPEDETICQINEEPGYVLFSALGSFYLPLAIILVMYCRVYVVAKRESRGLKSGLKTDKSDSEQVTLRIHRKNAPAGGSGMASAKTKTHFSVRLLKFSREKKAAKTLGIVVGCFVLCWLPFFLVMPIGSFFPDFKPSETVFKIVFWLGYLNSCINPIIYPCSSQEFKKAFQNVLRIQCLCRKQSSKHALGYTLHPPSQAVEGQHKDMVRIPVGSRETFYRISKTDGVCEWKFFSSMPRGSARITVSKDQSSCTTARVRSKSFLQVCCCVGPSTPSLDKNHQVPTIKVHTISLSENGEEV
# Further: assay procedure not described here.
# Chain of Acetylcholinesterase (P22303 whole entry): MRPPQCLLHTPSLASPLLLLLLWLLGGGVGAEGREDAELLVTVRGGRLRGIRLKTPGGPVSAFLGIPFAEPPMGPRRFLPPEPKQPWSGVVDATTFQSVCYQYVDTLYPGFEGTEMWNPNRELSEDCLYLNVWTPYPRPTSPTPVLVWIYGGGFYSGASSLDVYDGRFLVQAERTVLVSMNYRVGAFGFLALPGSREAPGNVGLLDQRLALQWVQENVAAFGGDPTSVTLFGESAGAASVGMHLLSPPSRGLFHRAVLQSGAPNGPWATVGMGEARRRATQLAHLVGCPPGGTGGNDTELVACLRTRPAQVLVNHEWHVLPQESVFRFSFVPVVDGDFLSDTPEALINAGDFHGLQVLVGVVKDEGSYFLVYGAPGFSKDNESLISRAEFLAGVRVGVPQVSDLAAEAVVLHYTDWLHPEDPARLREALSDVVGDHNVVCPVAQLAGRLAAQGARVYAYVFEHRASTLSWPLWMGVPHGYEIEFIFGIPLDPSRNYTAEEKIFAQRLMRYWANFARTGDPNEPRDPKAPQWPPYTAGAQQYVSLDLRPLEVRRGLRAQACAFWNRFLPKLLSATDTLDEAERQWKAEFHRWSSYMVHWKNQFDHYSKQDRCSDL
Compound,AC50 [1],AC50 [2],AC50 [3],AC50 [4],AC50 [5],AC50 [6],AC50 [7],AC50 [8],AC50 [9],AC50 [10],AC50 [11],AC50 [12],AC50 [13],AC50 [14]
Cc1c(O)cccc1C(=O)N[C@@H](CSc1ccccc1)[C@H](O)CN1C[C@H]2CCCC[C@H]2C[C@H]1C(=O)NC(C)(C)C,> 30 µM,> 30 µM,> 30 µM,> 30 µM,15.3 µM,> 30 µM,,,,,,,,
Nc1ccc(C(=O)O)cc1 [AMINOBENZOIC ACID],> 30 µM,> 30 µM,> 30 µM,> 30 µM,> 30 µM,> 30 µM,> 30 µM,,,,,,,
CCCC1C(=O)N2C(N(C)C)=Nc3ccc(C)cc3N2C1=O (centres undefined) [APAZONE],> 30 µM,> 30 µM,> 30 µM,> 30 µM,> 30 µM,> 30 µM,> 30 µM,,,,,,,
NS(=O)(=O)c1cc(-c2nnn[nH]2)c(NCc2cccs2)cc1Cl [AZOSEMIDE],,,,,,,,> 30 µM,> 30 µM,> 30 µM,19 µM,> 30 µM,> 30 µM,> 30 µM
C[N+](C)(C)CC(=O)O [BETAINE],,,,,,,,> 30 µM,> 30 µM,> 30 µM,> 30 µM,> 30 µM,> 30 µM,> 30 µM
CCCC(=O)N1CCCN(c2nc(N)c3cc(OC)c(OC)cc3n2)CC1 [BUNAZOSIN],,,,,,,,11 µM,> 30 µM,> 30 µM,> 30 µM,> 30 µM,21 µM,
C[N+](C)(C)CCOC(N)=O [CARBAMOYLCHOLINE],,,,,,,,> 30 µM,> 30 µM,> 10 µM,> 10 µM,> 10 µM,> 30 µM,> 30 µM
N[C@@H](CSCC(=O)O)C(=O)O [CARBOCYSTEINE],,,,,,,,> 30 µM,> 30 µM,> 30 µM,> 30 µM,> 30 µM,> 30 µM,> 30 µM
CC(C)(N)Cc1ccc(Cl)cc1 [CHLORPHENTERMINE],,,,,,,,> 10 µM,25 µM,> 30 µM,> 30 µM,> 10 µM,> 30 µM,> 30 µM
NS(=O)(=O)c1cc2c(cc1Cl)NC(C1CC3C=CC1C3)NS2(=O)=O (centres undefined) [CYCLOTHIAZIDE],> 30 µM,> 30 µM,,> 30 µM,> 30 µM,> 30 µM,> 30 µM,,,,,,,
CN(C)[C@@H]1C(O)=C(C(N)=O)C(=O)[C@@]2(O)C(O)=C3C(=O)c4c(O)ccc(Cl)c4[C@@H](O)[C@H]3C[C@@H]12 [DEMECLOCYCLINE],,,,,,,,> 10 µM,> 10 µM,> 10 µM,> 10 µM,> 10 µM,> 30 µM,
NS(=O)(=O)c1cc(Cl)c(Cl)c(S(N)(=O)=O)c1 [DICHLORPHENAMIDE],,,,,,,,> 10 µM,> 10 µM,> 10 µM,> 10 µM,> 10 µM,> 30 µM,> 30 µM
C=C1C[C@@H]2[C@H](CC[C@]3(C)C(=O)CC[C@@H]23)[C@@]2(C)C=CC(=O)C=C12 [EXEMESTANE],,,,,,,,> 10 µM,36 µM,> 30 µM,> 30 µM,> 10 µM,> 30 µM,> 30 µM
C[C@@H]1C[C@H]2[C@@H]3C[C@H](F)C4=CC(=O)C(Cl)=C[C@]4(C)[C@@]3(F)[C@@H](O)C[C@]2(C)[C@@]1(O)C(=O)CO [HALOMETASONE],> 30 µM,> 30 µM,,> 30 µM,> 30 µM,> 30 µM,> 30 µM,,,,,,,
CC(C(O)c1ccc(O)cc1)N1CCC(Cc2ccccc2)CC1 (centres undefined) [IFENPRODIL],,,,,,,,3.8 µM,2.3 µM,> 30 µM,> 30 µM,> 30 µM,1.2 µM,0.45 µM
CC(=O)N(CC(O)CO)c1c(I)c(C(=O)NCC(O)CO)c(I)c(C(=O)NCC(O)CO)c1I (centres undefined) [IOHEXOL],,,,,,,,> 10 µM,> 10 µM,> 30 µM,> 30 µM,> 10 µM,> 30 µM,> 30 µM
CN(CCCN1c2ccccc2CCc2ccccc21)CC(=O)c1ccc(Cl)cc1 [LOFEPRAMINE],,,,,,,,> 30 µM,> 30 µM,> 30 µM,1.3 µM,,3 µM,4.4 µM
CCC1(c2cccc(O)c2)CCCCN(C)C1 (centres undefined) [MEPTAZINOL],5.51 µM,> 30 µM,> 30 µM,> 30 µM,,> 30 µM,> 30 µM,,,,,,,
CN(C/C=C/c1ccccc1)Cc1cccc2ccccc12 [NAFTIFINE],,,,,,,,> 10 µM,> 10 µM,> 30 µM,23.1 µM,> 10 µM,> 30 µM,> 30 µM
CC(C)NCC1CCc2cc(CO)c([N+](=O)[O-])cc2N1 (centres undefined) [OXAMNIQUINE],,,,,,,,> 10 µM,26 µM,> 10 µM,> 10 µM,> 10 µM,7.4 µM,> 30 µM
CN(C)CCCN1c2ccccc2Sc2ccccc21 [PROMAZINE],,,,,,,,> 10 µM,5.7 µM,> 30 µM,> 30 µM,> 10 µM,0.075 µM,0.141 µM
O=P(O)(O)C(O)(Cc1cccnc1)P(=O)(O)O [RISEDRONIC ACID],,,,,,,,> 30 µM,> 30 µM,> 30 µM,> 30 µM,> 30 µM,> 30 µM,> 30 µM
CCC1C(C)=NN=C(c2ccc(OC)c(OC)c2)c2cc(OC)c(OC)cc21 (centres undefined) [TOFISOPAM],> 30 µM,> 30 µM,,> 30 µM,> 30 µM,0.319 µM,> 30 µM,,,,,,,
CC(=O)N[C@H]1[C@H]([C@H](O)[C@H](O)CO)OC(C(=O)O)=C[C@@H]1N=C(N)N [ZANAMIVIR],,,,,,,,> 10 µM,> 30 µM,> 30 µM,> 30 µM,> 30 µM,> 30 µM,
